Test results published in ChEMBL document CHEMBL4673394, “Discovery of a Series of Pyrazinone RORγ Antagonists and Identification of the Clinical Candidate BI 730357” (ACS Med Chem Lett, 2021).

Experiments:
[1] = Oral bioavailability in Wistar Han rat at 3 mg/kg measured at 15 to 1440 mins; assay type: ADME, organism-based; settings: in vivo, time 15-1440 min
[2] = Clearance in Wistar Han rat at 1 mg/kg, iv measured at 5 to 1440 mins relative to hepatic blood flow; assay type: ADME, organism-based; settings: in vivo, time 5-1440 min
[3] = Permeability in human Caco2 cells; assay type: ADME, cell-based; settings: Caco-2, read-out: permeability

| SMILES | bioavailability [1] | CL [2] | Papp [3] |
| --- | --- | --- | --- |
| CC[C@@H](C)n1c(=O)c(NCc2ccc(S(=O)(=O)CC)cn2)nc2cnc(-c3c(OC)ncnc3C3CC3)nc21 | 20% | 42% |  |
| CCS(=O)(=O)c1ccc(CNc2nc3cnc(-c4c(OC)ncnc4C4CC4)nc3n(C(C)C)c2=O)nc1 | 70% | 32% |  |
| CCS(=O)(=O)c1ccc(CNc2nc3cnc(-c4c(OC)ncnc4C4CC4)nc3n([C@@H](C)C(F)(F)F)c2=O)nc1 |  | 10% |  |
| CCS(=O)(=O)c1cnc(CNc2nc3cnc(-c4c(C)ncnc4C4CC4)nc3n([C@@H](C)C3CC3)c2=O)nc1 |  | 29% |  |
| CCS(=O)(=O)c1ccc(CNC(=O)N2CC(C)(C)c3nc(-c4c(OC)ncnc4C4CC4)ccc32)cc1 | 90% | 34% |  |

Other lines, results leading:

| bioavailability [1] | CL [2] | Papp [3] | SMILES |
| --- | --- | --- | --- |
|  | 56% |  | CCS(=O)(=O)c1ccc(CNc2nc3cnc(-c4c(OC)ncnc4C4CC4)nc3n([C@@H](C)C3CC3)c2=O)nc1 |
|  | 44% |  | CCS(=O)(=O)c1ccc(CNc2nc3cnc(-c4c(OC)ncnc4C4CC4)nc3n([C@H](C)C3CC3)c2=O)nc1 |
| 70% | 16% | 110 ×10⁻⁶ cm/s | Cc1ncnc(C2CC2)c1-c1ncc2nc(NCc3ccc(S(C)(=O)=O)cn3)c(=O)n([C@@H](C)C3CC3)c2n1 |
| 61% | 19% |  | CCS(=O)(=O)c1ccc(CNc2nc3cnc(-c4c(C)ncnc4C4CC4)nc3n([C@@H](C)C3CC3)c2=O)cn1 |
|  | 57% |  | CNS(=O)(=O)c1ccc(CNc2nc3cnc(-c4c(C)ncnc4C4CC4)nc3n([C@@H](C)C3CC3)c2=O)nc1 |
|  | 23% |  | CCS(=O)(=O)c1ccc(CNc2nc3cnc(-c4c(C)ncnc4C4CC4)nc3n([C@@H](C)C3CC3)c2=O)nc1 |
| 71% | 16% |  | CCS(=O)(=O)c1ccc(CNc2nc3cnc(-c4c(C)ncnc4C4CC4)nc3n(C(C)C)c2=O)nc1 |
